US12052991B2, “Substituted pyridinyloxybenzenes and salts thereof and use thereof as herbicidal agents” (Bayer Aktiengesellschaft, priority 2018, dated 2024)

Assays:
Assay type in all cases: in vivo
Lolium rigidum (LOLRI) [1] = assay: Herbicidal pre-emergence action, test C (Table C2); settings: dosage 1280 g/ha; visual scoring after about 3 weeks; 100% = plants have died, 0% = like control plants
Summary of the method: (§1)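 Seeds are covered with sandy loam, and the formulated compound is applied to the soil surface before emergence at 1280 or 320 g/ha. Spray carries 0.5% additive at 600 L/ha. Damage is rated visually as percent versus untreated pots after roughly 3 weeks.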

[2] = tested on: Amaranthus retroflexus (AMARE); assay: Herbicidal pre-emergence action, test C (Table C6); settings: visual scoring after about 3 weeks, 100% = plants have died, 0% = like control plants
Summary of the method: as §1

[3] = tested on: Matricaria inodora (MATIN); assay: Herbicidal pre-emergence action, test C (Table C7); settings: visual scoring after about 3 weeks, 100% = plants have died, 0% = like control plants
Summary of the method: as §1

Poa annua (POAAN) [4] = assay: Herbicidal post-emergence action (Table B3); settings: rated visually after about 3 weeks, 100% = plants have died, 0% = like control plants
Summary of the method: (§2)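 Visual percent activity relative to untreated controls (100% = plants dead, 0% = like controls) was scored about 3 weeks after treatment. Plants had been sprayed at the one-leaf stage with formulated compound at 1280 or 320 g/ha in 600 L/ha water containing 0.5% additive.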

[5] = tested on: Abutilon theophrasti (ABUTH); assay: Herbicidal pre-emergence action, test C (Table C5); settings: visual scoring after about 3 weeks, 100% = plants have died, 0% = like control plants
Summary of the method: as §1

Stellaria media (STEME) [6] = assay: Herbicidal post-emergence action (Table B8); settings: visual rating about 3 weeks after treatment, 100% = plants have died, 0% = like control plants
Summary of the method: as §2

[7] = tested on: Abutilon theophrasti (ABUTH); assay: Herbicidal post-emergence action (Table B5); settings: rated visually after about 3 weeks, 100% = plants have died, 0% = like control plants
Summary of the method: as §2

[8] = tested on: harmful plants ABUTH, AMARE, ECHCG, LOLRI, MATIN, POAAN, SETVI, STEME, ALOMY, DIGSA, KCHSC and VERPE; assay: Herbicidal pre-emergence action (test C), summary of Tables C1-C12; settings: application rate of 1280 or 320 g of active ingredient per hectare; summary in words
Summary of the method: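 Pre-emergence pot test in sandy loam: WP or EC formulations were sprayed onto the covering soil with 0.5% additive at 600 L/ha water, at 1280 or 320 g/ha. Plants were kept in the greenhouse, and activity was rated visually about 3 weeks later as % versus untreated controls (100% = dead).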

Setaria viridis (SETVI) [9] = assay: Herbicidal pre-emergence action, test C (Table C4); settings: visual scoring after about 3 weeks, 100% = plants have died, 0% = like control plants
Summary of the method: as §1

[10] = tested on: harmful plants ABUTH, AMARE, ECHCG, LOLRI, MATIN, POAAN, SETVI, STEME, ALOMY, DIGSA, KCHSC and VERPE; assay: Herbicidal post-emergence action, summary of Tables B1-B12; settings: application rate of 1280 or 320 g of active ingredient per hectare; summary in words
Summary of the method: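 Greenhouse weeds in sandy loam treated post-emergence at the one-leaf stage, 2–3 weeks after sowing, with WP or EC formulations sprayed with 0.5% additive at 600 L/ha water, 1280 or 320 g/ha. Damage rated visually after about 3 weeks versus untreated controls (0% = like control, 100% = dead).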

Poa annua (POAAN) [11] = assay: Herbicidal pre-emergence action, test C (Table C3); settings: visual scoring after about 3 weeks, 100% = plants have died, 0% = like control plants
Summary of the method: as §1

Lolium rigidum (LOLRI) [12] = assay: Herbicidal post-emergence action (Table B2); settings: 1280 g/ha; rated visually after about 3 weeks; 100% = plants have died, 0% = like control plants
Method: (§3) Seeds of mono- and dicotyledonous weed plants were placed in plastic pots in sandy loam soil (doubly sown with in each case one species of mono- or dicotyledonous weed plants per pot), covered with soil and cultivated in a greenhouse under controlled growth conditions. 2 to 3 weeks after sowing, the test plants were treated at the one-leaf stage. The compounds of the invention, formulated in the form of wettable powders (WP) or as emulsion concentrates (EC), were applied onto the green parts of the plants as aqueous suspension or emulsion with addition of 0.5% additive at a water application rate of 600 liters per hectare (converted). After the test plants had been kept in the greenhouse under optimum growth conditions for about 3 weeks, the activity of the preparations was rated visually in comparison to untreated controls. For example, 100% activity=the plants have died, 0% activity=like control plants. Tables B1 to B12 below show the effects of selected compounds of the general formula (I) according to Table 1 on various harmful plants and an application rate corresponding to 1280 or 320 g/ha, which were obtained by the experimental procedure mentioned above.

Setaria viridis (SETVI) [13] = assay: Herbicidal post-emergence action (Table B4); settings: rated visually after about 3 weeks, 100% = plants have died, 0% = like control plants
Method: as §3

[14] = tested on: Amaranthus retroflexus (AMARE); assay: Herbicidal post-emergence action (Table B6); settings: visual rating about 3 weeks after treatment, 100% = plants have died, 0% = like control plants
Summary of the method: as §2

[15] = tested on: Echinochloa crus-galli (ECHCG); assay: Herbicidal post-emergence action (Table B1); settings: rated visually after about 3 weeks, 100% = plants have died, 0% = like control plants
Summary of the method: as §2

Stellaria media (STEME) [16] = assay: Herbicidal pre-emergence action, test C (Table C8); settings: visual scoring after about 3 weeks, 100% = plants have died, 0% = like control plants
Summary of the method: as §1

[17] = tested on: Echinochloa crus-galli (ECHCG); assay: Herbicidal pre-emergence action, test C (Table C1); settings: visual scoring after about 3 weeks, 100% = plants have died, 0% = like control plants
Summary of the method: as §1

Fc1cccc(Oc2ncc(Cl)cc2Cl)c1-c1cc(C(F)F)no1 [Example 1-21]
very good herbicidal activity: herbicidal activity against the harmful plants of Tables C1-C12 in pre-emergence treatment [8] | herbicidal activity against the harmful plants of Tables B1-B12 in post-emergence treatment [10]
100%: Pre-emergence action against Lolium rigidum (LOLRI) (Lolium rigidum (LOLRI) [1]) | Pre-emergence action against Amaranthus retroflexus (AMARE) ([2]; dosage 320 g/ha) | Pre-emergence action against Amaranthus retroflexus (AMARE) ([2]; dosage 1280 g/ha) | Post-emergence action against Poa annua (POAAN) (Poa annua (POAAN) [4]; 320 g/ha) | Post-emergence action against Poa annua (POAAN) (Poa annua (POAAN) [4]; 1280 g/ha) | Post-emergence action against Stellaria media (STEME) (Stellaria media (STEME) [6]; dosage 320 g/ha) | Post-emergence action against Stellaria media (STEME) (Stellaria media (STEME) [6]; dosage 1280 g/ha) | Post-emergence action against Abutilon theophrasti (ABUTH) ([7]; 320 g/ha) | Post-emergence action against Abutilon theophrasti (ABUTH) ([7]; 1280 g/ha) | Pre-emergence action against Setaria viridis (SETVI) (Setaria viridis (SETVI) [9]; dosage 320 g/ha) | Pre-emergence action against Setaria viridis (SETVI) (Setaria viridis (SETVI) [9]; dosage 1280 g/ha) | Pre-emergence action against Poa annua (POAAN) (Poa annua (POAAN) [11]; dosage 320 g/ha) | Pre-emergence action against Poa annua (POAAN) (Poa annua (POAAN) [11]; dosage 1280 g/ha) | Post-emergence action against Lolium rigidum (LOLRI) (Lolium rigidum (LOLRI) [12]) | Post-emergence action against Setaria viridis (SETVI) (Setaria viridis (SETVI) [13]; 1280 g/ha) | Post-emergence action against Echinochloa crus-galli (ECHCG) ([15]; 320 g/ha) | Post-emergence action against Echinochloa crus-galli (ECHCG) ([15]; 1280 g/ha)
90%: Pre-emergence action against Matricaria inodora (MATIN) ([3]; dosage 1280 g/ha) | Pre-emergence action against Abutilon theophrasti (ABUTH) ([5]; dosage 320 g/ha) | Pre-emergence action against Abutilon theophrasti (ABUTH) ([5]; dosage 1280 g/ha) | Post-emergence action against Setaria viridis (SETVI) (Setaria viridis (SETVI) [13]; 320 g/ha) | Post-emergence action against Amaranthus retroflexus (AMARE) ([14]; dosage 1280 g/ha)

Fc1cccnc1Oc1cccc(F)c1-c1cc(C(F)F)no1 [Example 1-23]
very good herbicidal activity: herbicidal activity against the harmful plants of Tables C1-C12 in pre-emergence treatment [8] | herbicidal activity against the harmful plants of Tables B1-B12 in post-emergence treatment [10]
100%: Pre-emergence action against Lolium rigidum (LOLRI) (Lolium rigidum (LOLRI) [1]) | Pre-emergence action against Amaranthus retroflexus (AMARE) ([2]; dosage 1280 g/ha) | Pre-emergence action against Matricaria inodora (MATIN) ([3]; dosage 1280 g/ha) | Post-emergence action against Poa annua (POAAN) (Poa annua (POAAN) [4]; 320 g/ha) | Post-emergence action against Poa annua (POAAN) (Poa annua (POAAN) [4]; 1280 g/ha) | Pre-emergence action against Abutilon theophrasti (ABUTH) ([5]; dosage 320 g/ha) | Pre-emergence action against Abutilon theophrasti (ABUTH) ([5]; dosage 1280 g/ha) | Post-emergence action against Stellaria media (STEME) (Stellaria media (STEME) [6]; dosage 320 g/ha) | Post-emergence action against Stellaria media (STEME) (Stellaria media (STEME) [6]; dosage 1280 g/ha) | Post-emergence action against Abutilon theophrasti (ABUTH) ([7]; 320 g/ha) | Post-emergence action against Abutilon theophrasti (ABUTH) ([7]; 1280 g/ha) | Pre-emergence action against Setaria viridis (SETVI) (Setaria viridis (SETVI) [9]; dosage 320 g/ha) | Pre-emergence action against Setaria viridis (SETVI) (Setaria viridis (SETVI) [9]; dosage 1280 g/ha) | Pre-emergence action against Poa annua (POAAN) (Poa annua (POAAN) [11]; dosage 1280 g/ha) | Pre-emergence action against Stellaria media (STEME) (Stellaria media (STEME) [16]; dosage 320 g/ha) | Pre-emergence action against Stellaria media (STEME) (Stellaria media (STEME) [16]; dosage 1280 g/ha) | Pre-emergence action against Echinochloa crus-galli (ECHCG) ([17]; dosage 320 g/ha) | Pre-emergence action against Echinochloa crus-galli (ECHCG) ([17]; dosage 1280 g/ha) | Post-emergence action against Lolium rigidum (LOLRI) (Lolium rigidum (LOLRI) [12]) | Post-emergence action against Amaranthus retroflexus (AMARE) ([14]; dosage 320 g/ha) | Post-emergence action against Amaranthus retroflexus (AMARE) ([14]; dosage 1280 g/ha) | Post-emergence action against Echinochloa crus-galli (ECHCG) ([15]; 320 g/ha) | Post-emergence action against Echinochloa crus-galli (ECHCG) ([15]; 1280 g/ha)
90%: Pre-emergence action against Matricaria inodora (MATIN) ([3]; dosage 320 g/ha) | Pre-emergence action against Poa annua (POAAN) (Poa annua (POAAN) [11]; dosage 320 g/ha) | Post-emergence action against Setaria viridis (SETVI) (Setaria viridis (SETVI) [13]; 1280 g/ha)

Fc1cccc(Oc2ccccn2)c1-c1cc(C(F)F)no1 [Example 1-16]
very good herbicidal activity: herbicidal activity against the harmful plants of Tables C1-C12 in pre-emergence treatment [8] | herbicidal activity against the harmful plants of Tables B1-B12 in post-emergence treatment [10]
90%: Pre-emergence action against Matricaria inodora (MATIN) ([3]; dosage 320 g/ha) | Pre-emergence action against Echinochloa crus-galli (ECHCG) ([17]; dosage 1280 g/ha) | Post-emergence action against Echinochloa crus-galli (ECHCG) ([15]; 320 g/ha)
100%: Pre-emergence action against Lolium rigidum (LOLRI) (Lolium rigidum (LOLRI) [1]) | Pre-emergence action against Amaranthus retroflexus (AMARE) ([2]; dosage 320 g/ha) | Pre-emergence action against Amaranthus retroflexus (AMARE) ([2]; dosage 1280 g/ha) | Pre-emergence action against Matricaria inodora (MATIN) ([3]; dosage 1280 g/ha) | Post-emergence action against Poa annua (POAAN) (Poa annua (POAAN) [4]; 320 g/ha) | Post-emergence action against Poa annua (POAAN) (Poa annua (POAAN) [4]; 1280 g/ha) | Pre-emergence action against Abutilon theophrasti (ABUTH) ([5]; dosage 320 g/ha) | Pre-emergence action against Abutilon theophrasti (ABUTH) ([5]; dosage 1280 g/ha) | Post-emergence action against Stellaria media (STEME) (Stellaria media (STEME) [6]; dosage 320 g/ha) | Post-emergence action against Stellaria media (STEME) (Stellaria media (STEME) [6]; dosage 1280 g/ha) | Post-emergence action against Abutilon theophrasti (ABUTH) ([7]; 320 g/ha) | Post-emergence action against Abutilon theophrasti (ABUTH) ([7]; 1280 g/ha) | Pre-emergence action against Setaria viridis (SETVI) (Setaria viridis (SETVI) [9]; dosage 320 g/ha) | Pre-emergence action against Setaria viridis (SETVI) (Setaria viridis (SETVI) [9]; dosage 1280 g/ha) | Pre-emergence action against Poa annua (POAAN) (Poa annua (POAAN) [11]; dosage 320 g/ha) | Pre-emergence action against Poa annua (POAAN) (Poa annua (POAAN) [11]; dosage 1280 g/ha) | Pre-emergence action against Stellaria media (STEME) (Stellaria media (STEME) [16]; dosage 320 g/ha) | Pre-emergence action against Stellaria media (STEME) (Stellaria media (STEME) [16]; dosage 1280 g/ha) | Post-emergence action against Lolium rigidum (LOLRI) (Lolium rigidum (LOLRI) [12]) | Post-emergence action against Amaranthus retroflexus (AMARE) ([14]; dosage 320 g/ha) | Post-emergence action against Amaranthus retroflexus (AMARE) ([14]; dosage 1280 g/ha) | Post-emergence action against Echinochloa crus-galli (ECHCG) ([15]; 1280 g/ha)
